One assay deals with SAUR 9213. The experiment in a line: In vitro MIC by standard agar dilution method, SAUR 9213. The assay is classed as cell-based, S. aureus. The settings on record: Staphylococcus aureus; agar dilution, Mueller Hinton agar, incubated overnight at 35° C.; lowest concentration that inhibits visible growth; read-out: SAUR 9213 MIC (Minimum Inhibitory Concentration). From the text: (§1) The oxazolidinone antibacterial agents of this invention have useful activity against a variety of organisms. The in vitro activity of compounds of this invention can be assessed by standard testing procedures such as the determination of minimum inhibitory concentration (MIC) by agar dilution as described in “Approved Standard. Methods for Dilution Antimicrobial Susceptibility Tests for Bacteria That Grow Aerobically”, 3rd. ed., published 1993 by the National Committee for Clinical Laboratory Standards, Villanova, Pa., USA.
(§2) The in vitro MICs of test compounds were determined by a standard agar dilution method. A stock drug solution of each analog was prepared in the preferred solvent, usually DMSO: H2O (1:3). Serial 2-fold dilutions of each sample are made using 1.0 ml aliquots of sterile distilled water. To each 1.0 ml aliquot of drug was added 9 ml of molten Mueller Hinton agar medium. The drug-supplemented agar was mixed, poured into 15×100 mm petri dishes, and allowed to solidify and dry prior to inoculation.
(§3) Vials of each of the test organisms are maintained frozen in the vapor phase of a liquid nitrogen freezer. Test cultures are grown overnight at 35° C. on the medium appropriate for the organism. Colonies are harvested with a sterile swab, and cell suspensions are prepared in Trypticase Soy broth (TSB) to equal the turbidity of a 0.5 McFarland standard. A 1:20 dilution of each suspension was made in TSB. The plates containing the drug supplemented agar are inoculated with a 0.001 ml drop of the cell suspension using a Steers replicator, yielding approximately 10^4 to 10^5 cells per spot. The plates are incubated overnight at 35° C.
(§4) Following incubation the Minimum Inhibitory Concentration (MIC μg/ml), the lowest concentration of drug that inhibits visible growth of the organism, was read and recorded.
(Agar dilution tests growth on a series of plates holding different concentrations.)

In the next assay the test system is SPNE 9912. The experiment in a line: In vitro MIC by standard agar dilution method, SPNE 9912. The assay is classed as cell-based. The following applies: agar dilution, Mueller Hinton agar, incubated overnight at 35° C.; lowest concentration that inhibits visible growth; read-out: SPNE 9912 MIC (Minimum Inhibitory Concentration).
From the text: as §1, §2, §3, §4

The next assay concerns HINF 30063. Kind of assay: In vitro MIC by standard agar dilution method, HINF 30063. Format: cell-based, H. influenzae. The following applies: Haemophilus influenzae; agar dilution, Mueller Hinton agar, incubated overnight at 35° C.; lowest concentration that inhibits visible growth; read-out: HINF 30063 MIC (Minimum Inhibitory Concentration).
From the text: as §1, §2, §3, §4

Experimental findings from patent US20040204463A1, “N-aryl-2-oxazolidinone-5-carboxamides and their derivatives” (priority 2003, published 2004) are described below.

Molecules are shown by their SMILES. ≈ marks a conversion by molar mass, not a printed value. Where a name gives a salt, the structure may show the parent alone.

As to `CC(=O)NC[C@H]1CN(c2ccc(N3CCN(C(=O)CCCC#Cc4cccc(C#N)c4)CC3)c(F)c2)C(=O)O1` [Compound 14, N-{[(5S)-3-(4-{4-[6-(3-cyanophenyl)hex-5-ynoyl]piperazin-1-yl}-3-fluorophenyl)-2-oxo-1,3-oxazolidin-5-yl]methyl}acetamide], the MIC in the assay on SAUR 9213 is 8 µg/mL (≈ 15 µM); with SPNE 9912, 2 µg/mL (≈ 3.76 µM); in the assay on HINF 30063, > 64 µg/mL.
The corresponding values for `CC(=O)NC[C@H]1CN(c2ccc(N3CCN(C(=O)CCCC#Cc4ccc(/C(C)=N/O)cc4)CC3)c(F)c2)C(=O)O1` [Compound 15, N-[((5S)-3-{3-fluoro-4-[4-(6-{4-[(1E)-N-hydroxyethan-imidoyl]-phenyl}hex-5-ynoyl)piperazin-1-yl]phenyl}-2-oxo-1,3-oxazolidin-5-yl)methyl]-acetamide, HCl salt] are > 16 µg/mL, 2 µg/mL and > 16 µg/mL.
With `CCC(=O)NC[C@H]1CN(c2ccc(C3(C)CN(C(=O)CCCC#Cc4cccc(CN)c4)C3)cc2)C(=O)O1` [Compound 16, N-({(5S)-3-[4-(1-{6-[3-(aminomethyl)phenyl]hex-5-ynoyl}-3-methylazetidin-3-yl)phenyl]-2-oxo-1,3-oxazolidin-5-yl}methyl)propan-amide], the MIC with SAUR 9213 turned out to be 16 µg/mL (≈ 31 µM); in the assay on SPNE 9912 it was 2 µg/mL (≈ 3.87 µM); in the assay on HINF 30063, 16 µg/mL (≈ 31 µM).
On to `CC(=O)NC[C@H]1CN(c2ccc(N3CCN(C(=O)CCCC#Cc4ccc(C(C)=O)cc4)CC3)c(F)c2)C(=O)O1` [Compound 17, N-{[(5S)-3-(4-{4-[6-(4-acetylphenyl)hex-5-ynoyl]piperazin-1-yl}-3-fluorophenyl)-2-oxo-1,3-oxazolidin-5-yl]methyl}acetamide], for which the MIC is > 64 µg/mL in the assay with SAUR 9213, 2 µg/mL (≈ 3.65 µM) in the assay with SPNE 9912 and > 64 µg/mL in the assay with HINF 30063.
For the compound `CC(=O)NC[C@H]1CN(c2ccc(N3CCN(C(=O)CCCC#Cc4ccc(Cn5ccnc5)cc4)CC3)c(F)c2)C(=O)O1` [Compound 18, N-({(5S)-3-[3-fluoro-4-(4-{6-[4-(1H-imidazol-1-ylmethyl)phenyl]hex-5-ynoyl}piperazin-1-yl)phenyl]-2-oxo-1,3-oxazolidin-5-yl}methyl)acetamide], the MIC in the assay with SAUR 9213 was 16 µg/mL (≈ 27.3 µM); in the assay with SPNE 9912, 2 µg/mL (≈ 3.41 µM); in the assay on HINF 30063 it was > 64 µg/mL.
In the same order, the values of `CNCc1ccc(C#CCCCC(=O)N2CCN(c3ccc(N4C[C@H](CNC(C)=O)OC4=O)cc3F)CC2)cc1` [Compound 19, N-[((5S)-3-{3-fluoro-4-[4-(6-{4-[(methylamino)methyl]phenyl}hex-5-ynoyl)piperazin-1-yl]phenyl}-2-oxo-1,3-oxazolidin-5-yl)methyl]acetamide] are 4 µg/mL (≈ 7.28 µM), 0.25 µg/mL (≈ 0.455 µM) and 32 µg/mL (≈ 58.2 µM).
Take `CC(=O)NC[C@H]1CN(c2ccc(N3CCN(C(=O)CCC#Cc4ccc(N)cc4)CC3)c(F)c2)C(=O)O1` [Compound 20, N-{[(5S)-3-(4-{4-[5-(4-aminophenyl)pent-4-ynoyl]piperazin-1-yl}-3-fluorophenyl)-2-oxo-1,3-oxazolidin-5-yl]methyl}acetamide]: the values for the MIC in the assay on SAUR 9213, in the assay on SPNE 9912 and with HINF 30063 were 4 µg/mL (≈ 7.88 µM), 2 µg/mL (≈ 3.94 µM) and 64 µg/mL (≈ 126 µM), respectively.
Take `COC(=O)[C@@H](N)Cc1ccc(C#CCCC(=O)N2CCN(c3ccc(N4C[C@H](CNC(C)=O)OC4=O)cc3F)CC2)cc1` [Compound 21, methyl 4-{5-[4-(4-{(5S)-5-[(acetylamino)methyl]-2-oxo-1,3-oxazolidin-3-yl}-2-fluorophenyl)piperazin-1-yl]-5-oxopent-1-ynyl}-L-phenylalaninate]: the results for the MIC in the assay on SAUR 9213, with SPNE 9912 and in the assay with HINF 30063 were 32 µg/mL (≈ 53.9 µM), 4 µg/mL (≈ 6.74 µM) and > 64 µg/mL, respectively.
Turning to `CC(=O)NC[C@H]1CN(c2ccc(N3CCN(C(=O)CCC#Cc4c[nH]c(=O)[nH]c4=O)CC3)c(F)c2)C(=O)O1` [Compound 22, N-{[(5S)-3-(4-{4-[5-(2,4-dioxo-1,2,3,4-tetrahydropyrimidin-5-yl)pent-4-ynoyl]piperazin-1-yl}-3-fluorophenyl)-2-oxo-1,3-oxazolidin-5-yl]methyl}acetamide], the values for the MIC in the assay on SAUR 9213, in the assay with SPNE 9912 and with HINF 30063 were 32 µg/mL (≈ 60.8 µM), 4 µg/mL (≈ 7.6 µM) and 32 µg/mL (≈ 60.8 µM), respectively.
For `CC(=O)NC[C@H]1CN(c2ccc(N3CCN(C(=O)CCCCC#Cc4ccc(CN)cc4)CC3)c(F)c2)C(=O)O1` [Compound 23, N-({(5S)-3-[4-(4-{7-[4-(aminomethyl)phenyl]hept-6-ynoyl}piperazin-1-yl)-3-fluorophenyl]-2-oxo-1,3-oxazolidin-5-yl}methyl)acetamide], the MIC stood at 4 µg/mL (≈ 7.28 µM) with SAUR 9213, 0.25 µg/mL (≈ 0.455 µM) with SPNE 9912 and 32 µg/mL (≈ 58.2 µM) in the assay with HINF 30063.
`CC(=O)NC[C@H]1CN(c2ccc(N3CCN(C(=O)CCCCC#Cc4ccc(O)cc4)CC3)c(F)c2)C(=O)O1` [Compound 24, N-{[(5S)-3-(3-fluoro-4-{4-[7-(4-hydroxyphenyl)hept-6-ynoyl]piperazin-1-yl}phenyl)-2-oxo-1,3-oxazolidin-5-yl]methyl}acetamide]: the MIC is 8 µg/mL (≈ 14.9 µM) in the assay with SAUR 9213, 2 µg/mL (≈ 3.73 µM) in the assay with SPNE 9912 and > 64 µg/mL with HINF 30063.
In the same order, the values of `CC(=O)NC[C@H]1CN(c2ccc(N3CCN(C(=O)CCCCC#Cc4cccc(O)c4)CC3)c(F)c2)C(=O)O1` [Compound 25, N-{[(5S)-3-(3-fluoro-4-{4-[7-(3-hydroxyphenyl)hept-6-ynoyl]piperazin-1-yl}phenyl)-2-oxo-1,3-oxazolidin-5-yl]methyl}acetamide] are 8 µg/mL (≈ 14.9 µM), 2 µg/mL (≈ 3.73 µM) and > 64 µg/mL.
As to `CC(=O)NC[C@H]1CN(c2ccc(N3CCN(C(=O)CCCC#Cc4ccc(CN)cc4)CC3)c(F)c2)C(=O)O1` [Compound 26, N-({(5S)-3-[4-(4-{6-[4-(aminomethyl)phenyl]hex-5-ynoyl}piperazin-1-yl)-3-fluorophenyl]-2-oxo-1,3-oxazolidin-5-yl}methyl)acetamide], the MIC in the assay on SAUR 9213 stood at 4 µg/mL (≈ 7.47 µM); in the assay on SPNE 9912, 0.25 µg/mL (≈ 0.467 µM); with HINF 30063, 16 µg/mL (≈ 29.9 µM).
In the case of `CC(=O)NC[C@H]1CN(c2ccc(N3CCN(C(=O)CCCC#Cc4cccc(O)c4)CC3)c(F)c2)C(=O)O1` [Compound 27, N-{[(5S)-3-(3-fluoro-4-{4-[6-(3-hydroxyphenyl)hex-5-ynoyl]piperazin-1-yl}phenyl)-2-oxo-1,3-oxazolidin-5-yl]methyl}acetamide], the MIC in the assay with SAUR 9213 is 8 µg/mL (≈ 15.3 µM); with SPNE 9912 it was 1 µg/mL (≈ 1.91 µM); with HINF 30063, > 64 µg/mL.
Regarding `CC(=O)NC[C@H]1CN(c2ccc(N3CCN(C(=O)CCC#Cc4cccc(O)c4)CC3)c(F)c2)C(=O)O1` [Compound 29, N-{[(5S)-3-(3-fluoro-4-{4-[5-(3-hydroxyphenyl)pent-4-ynoyl]piperazin-1-yl}phenyl)-2-oxo-1,3-oxazolidin-5-yl]methyl}acetamide], the results for the MIC in the assay on SAUR 9213, in the assay with SPNE 9912 and in the assay on HINF 30063 were 4 µg/mL (≈ 7.87 µM), 1 µg/mL (≈ 1.97 µM) and > 64 µg/mL, respectively.
For the compound `CC(=O)NC[C@H]1CN(c2ccc(N3CCN(C(=O)CCC#Cc4ccc(O)cc4)CC3)c(F)c2)C(=O)O1` [Compound 30, N-{[(5S)-3-(3-fluoro-4-{4-[5-(4-hydroxyphenyl)pent-4-ynoyl]piperazin-1-yl}phenyl)-2-oxo-1,3-oxazolidin-5-yl]methyl}acetamide], the MIC with SAUR 9213 turned out to be 4 µg/mL (≈ 7.87 µM); with SPNE 9912, 1 µg/mL (≈ 1.97 µM); in the assay with HINF 30063 it was 64 µg/mL (≈ 126 µM).
The corresponding values for `C#CCCCCC(=O)N1CCN(c2ccc(N3C[C@H](CNC(C)=O)OC3=O)cc2F)CC1` [Compound 31, N-({(5S)-3-[3-fluoro-4-(4-hept-6-ynoylpiperazin-1-yl)phenyl]-2-oxo-1,3-oxazolidin-5-yl}methyl)acetamide] are 4 µg/mL (≈ 9 µM), 1 µg/mL (≈ 2.25 µM) and 64 µg/mL (≈ 144 µM).
In the same order, the values of `CC(=O)NC[C@H]1CN(c2ccc(N3CCN(C(=O)CCCCC#Cc4cccc(CN)c4)CC3)c(F)c2)C(=O)O1` [Compound 32, N-({(5S)-3-[4-(4-{7-[3-(aminomethyl)phenyl]hept-6-ynoyl}-piperazin-1-yl)-3-fluorophenyl]-2-oxo-1,3-oxazolidin-5-yl}methyl)acetamide] are 4 µg/mL (≈ 7.28 µM), 2 µg/mL (≈ 3.64 µM) and 64 µg/mL (≈ 116 µM).
In the same order, the values of `CC(=O)NC[C@H]1CN(c2ccc(N3CCN(C(=O)CCC#Cc4cccc(CN)c4)CC3)c(F)c2)C(=O)O1` [Compound 33, N-({(5S)-3-[4-(4-{5-[3-(aminomethyl)phenyl]pent-4-ynoyl}piperazin-1-yl)-3-fluorophenyl]-2-oxo-1,3-oxazolidin-5-yl}-methyl)acetamide] are 4 µg/mL (≈ 7.67 µM), 1 µg/mL (≈ 1.92 µM) and 16 µg/mL (≈ 30.7 µM).
